# Laboratory results reported in patent US6667346B2, “Method for protecting cells and tissues from ionizing radiation toxicity with α, β unsaturated aryl sulfones” (Temple University - Of The Commonwealth System of Higher …, priority 2001, dated 2003).
# Tests used:
# [1] = system: HFL-1 cells; assay: Radioprotective effects on cultured normal cells (colony formation after irradiation); assay type: cell-based, human; conditions: HFL-1 normal diploid lung fibroblasts; 2.5 to 20 micromolar for 24 hrs before 10 Gy or 15 Gy IR; colonies counted after 3 weeks
# Method: HFL-1 cells, which are normal diploid lung fibroblasts, were plated into 24 well dishes at a cell density of 3000 cells per 10 mm^2 in DMEM completed with 10% fetal bovine serum and antibiotics. The test compounds listed in Table 16 were added to the cells 24 hours later in select concentrations from 2.5 to 20 micromolar, inclusive, using DMSO as a solvent. Control cells were treated with DMSO alone. The cells were exposed to the test compound or DMSO for 24 hrs. The cells were then irradiated with either 10 Gy (gray) or 15 Gy of ionizing radiation (IR) using a J. L. Shepherd Mark I, Model 30-1 Irradiator equipped with ^137cesium as a source.
# After irradiation, the medium on the test and control cells was removed and replaced with fresh growth medium without the test compounds or DMSO. The irradiated cells were incubated for 96 hours and duplicate wells were trypsinized and replated onto 100 mm^2 tissue culture dishes. The replated cells were grown under normal conditions with one change of fresh medium for 3 weeks. The number of colonies from each 100 mm^2 culture dish, which represents the number of surviving cells, was determined by staining the dishes as described below.
# To visualize and count the colonies derived from the clonal outgrowth of individual radioprotected cells, the medium was removed and the plates were washed one time with room temperature phosphate buffered saline. The cells were stained with a 1:10 diluted Modified Giemsa staining solution (Sigma) for 20 minutes. The stain was removed, and the plates were washed with tap water. The plates were air dried, the number of colonies from each plate were counted and the average from duplicate plates was determined.
# A “+” indicates radioprotective activity of between 2- and 4.5-fold at the concentrations tested. Fold protection was determined by dividing the average number of colonies from the test plates by the average number of colonies on the control plates.
# [2] = system: DU145 cells; assay: Tumor cell killing by ionizing radiation, compound added after IR treatment; assay type: cell-based; conditions: for Interference with killing of tumor cells by ionizing radiation: continuous exposure, added immediately following 10 Gy IR
# Method: DU145 cells were plated in 6 well dishes at a cell density of 1.0×10^5 cells per 35 mm^2 in DMEM completed with 10% fetal bovine serum and antibiotics. The plates were incubated overnight and the cells were irradiated with 10 Gy of ionizing irradiation. Compound 1 (1.0 uM and 2.0 uM) or Compound 13 (10.0 uM and 20.0 uM) in DMSO was added to the cells immediately following the IR treatment.
# [3] = system: C57 black mice; assay: Protection of mice from radiation toxicity by pre-treatment (mortality after 8 Gy); assay type: in vivo
# Method: C57 black mice age 10-12 weeks (Taconic) were divided into two treatment groups of 10 mice each. One group, designated the “200×2” group, received intraperitoneal injections of 200 micrograms (E)-4-carboxystyryl-4-chlorobenzylsulfone dissolved in DMSO (a 10 mg/Kg dose, based on 20 g mice) 18 and 6 hours before irradiation with 8 Gy gamma radiation. The other group, designated “500×2,” received intraperitoneal injections of 500 micrograms (E)-4-carboxystyryl-4-chlorobenzylsulfone dissolved in DMSO (a 25 mg/Kg dose, based on 20 g mice) 18 and 6 hours before irradiation with 8 Gy gamma radiation. A control group of 16 animals received 8 Gy gamma radiation alone.
# [4] = system: C57 B6/J mice; assay: Radioprotective effect in mice when given after radiation exposure (mortality after 8 Gy); assay type: in vivo
# Method: One group, designated the “200×2” group, received intraperitoneal injections of 200 micrograms (E)-4-carboxystyryl-4-chlorobenzylsulfone dissolved in DMSO (a 10 mg/Kg dose, assuming 20 g mice) 18 and 6 hours before irradiation with 8 Gy gamma radiation. The other group, designated “200 Post,” received an intraperitoneal injection of 200 micrograms (E)-4-carboxystyryl-4-chlorobenzylsulfone dissolved in DMSO (a 10 mg/Kg dose, based on 20 g mice) 15 minutes after irradiation with 8 Gy gamma radiation. A control group of 16 animals received 8 Gy gamma radiation alone.
# [5] = "200×2" group: 10 mg/Kg i.p. 18 and 6 hours before 8 Gy gamma radiation
# [6] = "500×2" group: 25 mg/Kg i.p. 18 and 6 hours before 8 Gy gamma radiation
compound,measurement,setting,value
(Z)-Styryl-(E)-2-methoxy-4-ethoxystyrylsulfone [Compound 11],"Activity (radioprotective activity, fold protection: colonies test/control)",[1],+ (radioprotective activity of between 2- and 4.5-fold at the concentrations tested)
"(E)-2,4,6-Trimethoxystyryl-4-methoxybenzylsulfone [Compound 2]","Activity (radioprotective activity, fold protection: colonies test/control)",[1],+ (radioprotective activity of between 2- and 4.5-fold at the concentrations tested)
(E)-4-Fluorostyryl-4-cyanobenzylsulfone [Compound 6],"Activity (radioprotective activity, fold protection: colonies test/control)",[1],+ (radioprotective activity of between 2- and 4.5-fold at the concentrations tested)
"O=S(=O)(/C=C/c1ccoc1)Cc1ccc(Cl)cc1Cl [Compound 8, (E)-3-Furanethenyl-2,4-dichlorobenzylsulfone]","Activity (radioprotective activity, fold protection: colonies test/control)",[1],+ (radioprotective activity of between 2- and 4.5-fold at the concentrations tested)
(E)-4-Fluorostyryl-4-trifluoromethylbenzylsulfone [Compound 5],"Activity (radioprotective activity, fold protection: colonies test/control)",[1],+ (radioprotective activity of between 2- and 4.5-fold at the concentrations tested)
"O=C(O)c1ccc(/C=C/S(=O)(=O)Cc2ccc(Cl)cc2)cc1 [Compound 13, (E)-4-Carboxystyryl-4-chlorobenzylsulfone]","Activity (radioprotective activity, fold protection: colonies test/control)",[1],+ (radioprotective activity of between 2- and 4.5-fold at the concentrations tested)
same,Additive tumor cell killing effect,[2]; 20 uM added immediately following 10 Gy IR,additive tumor cell killing effect
same,Interference with killing of tumor cells by ionizing radiation,[2],did not interfere with the killing of tumor cells by ionizing radiation
same,Maximum mortality rate by day 40,[3]; [5],approximately 60%
same,Mice dead at day 20 post-irradiation,[3]; [5],about 50%
same,Maximum mortality rate by day 40,[3]; [6],about 50%
same,Mice dead at day 20 post-irradiation,[3]; [6],about 30%
same,Radiation toxicity in mice,[3]; pretreatment 18 and 6 hours before 8 Gy gamma radiation,significantly reduced
same,Radioprotection by post-irradiation treatment versus pre-irradiation treatment,"[4]; ""200 Post"" vs ""200×2"" group, 8 Gy gamma radiation",not as great as seen with pre-irradiation treatment
same,Radiation-induced mortality compared with control animals,"[4]; ""200 Post"": 10 mg/Kg i.p. 15 minutes after 8 Gy gamma radiation",significant delay in radiation-induced mortality
"O=S(=O)(/C=C\c1ccc(F)cc1)Cc1ccc(Cl)cc1 [Compound 7, (Z)-4-Fluorostyryl-4-chlorobenzylsulfone]","Activity (radioprotective activity, fold protection: colonies test/control)",[1],+ (radioprotective activity of between 2- and 4.5-fold at the concentrations tested)
(E)-4-Fluorostyryl-4-chlorophenylsulfone [Compound 10],"Activity (radioprotective activity, fold protection: colonies test/control)",[1],+ (radioprotective activity of between 2- and 4.5-fold at the concentrations tested)
"O=S(=O)(/C=C/c1ccc(F)cc1)Cc1ccc(Cl)cc1 [Compound 1, (E)-4-Fluorostyryl-4-chlorobenzylsulfone]","Activity (radioprotective activity, fold protection: colonies test/control)",[1],+ (radioprotective activity of between 2- and 4.5-fold at the concentrations tested)
same,Additive tumor cell killing effect,[2]; 2.0 uM added immediately following 10 Gy IR,additive tumor cell killing effect
same,Interference with killing of tumor cells by ionizing radiation,[2],did not interfere with the killing of tumor cells by ionizing radiation
